Experimental data taken from paper PMC4319826, “Potent Natural Soluble Epoxide Hydrolase Inhibitors from Pentadiplandra brazzeana Baillon: Synthesis, Quantification, and Measurement of Biological Activities In Vitro and In Vivo” (PLoS ONE, 2015).
Values after ≈ are worked out from the molar mass of the structure shown. “Also recorded” adds a separate entry of the source. Read-outs that look alike come from different tables or passages of the source.

Assays:
recombinant human sEH [1] = molecular target: T1, recombinant human sEH (Homo sapiens, UniProt P34913); assay: sEH inhibition by radioactivity-based assay (t-DPPO assay), human; type: biochemical; settings: for IC50: t-DPPO 50 μM, mean ± SD of three measurements
T1 construct: made in house; host or cells: insect High Five cells, recombinant baculovirus
T1 sequence (P34913 1-555): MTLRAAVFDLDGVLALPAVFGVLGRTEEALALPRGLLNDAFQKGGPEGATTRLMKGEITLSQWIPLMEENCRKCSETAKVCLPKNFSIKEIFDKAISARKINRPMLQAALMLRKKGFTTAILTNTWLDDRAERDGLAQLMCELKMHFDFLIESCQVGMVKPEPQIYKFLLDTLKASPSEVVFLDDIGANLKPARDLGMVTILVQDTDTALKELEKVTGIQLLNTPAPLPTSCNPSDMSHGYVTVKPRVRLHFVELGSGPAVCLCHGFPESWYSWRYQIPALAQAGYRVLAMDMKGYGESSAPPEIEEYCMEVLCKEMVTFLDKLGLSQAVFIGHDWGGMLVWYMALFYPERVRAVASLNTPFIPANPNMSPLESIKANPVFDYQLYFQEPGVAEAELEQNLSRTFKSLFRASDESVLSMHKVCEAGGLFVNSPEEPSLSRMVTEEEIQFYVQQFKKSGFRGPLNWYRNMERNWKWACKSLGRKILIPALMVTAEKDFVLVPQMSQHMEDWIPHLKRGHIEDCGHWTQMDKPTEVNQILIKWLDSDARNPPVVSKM
Procedure: (§1) Recombinant human and recombinant rat sEH were produced in insect High Five cells using recombinant baculovirus expression vectors, and purified by affinity chromatography as reported previously. Each enzyme appeared as a single band (0.3 μg loading) with an estimated purity of more than 95% by Coomassie Brilliant Blue staining following SDS-PAGE separation (S1 Fig.). The final recombinant sEH preparations had no esterase or glutathione S-transferase activity which interferes with the CMNPC assay as described below.
IC50 values were determined as described previously with slight modifications, using racemic [^3H] trans-diphenylpropene oxide (t-DPPO). Purified recombinant human sEH was diluted in 100 mM sodium phosphate buffer (pH 7.4) containing 0.1 mg/ml BSA, and was incubated in triplicate with inhibitors for 5 min at 30°C prior to the introduction of the radiolabeled substrate (t-DPPO: 50 μM; ∼10,000 cpm/assay). The mixture was incubated at 30°C for 10 min and the reaction was quenched by the addition of 60 μl of methanol. The remaining substrate was extracted by vigorous mixing with 200 μl of isooctane. The radioactivity of the aqueous phase was measured using a liquid scintillation counter (Perkin Elmer Tri-Carb 2810TR, Shelton, CT). Epoxide hydrolase activity was determined as a percentage of the radioactivity corresponding to the diol in the aqueous phase relative to the control.

recombinant rat sEH = molecular target: T2, recombinant rat sEH (Rattus norvegicus, UniProt P80299); assay: sEH inhibition by fluorescent assay (CMNPC assay), rat; type: biochemical; settings: recombinant rat sEH 0.96 nM, [S] = 5 μM, mean ± SD of three measurements
T2 construct: made in house; host or cells: insect High Five cells, recombinant baculovirus
T2 sequence (P80299 1-554): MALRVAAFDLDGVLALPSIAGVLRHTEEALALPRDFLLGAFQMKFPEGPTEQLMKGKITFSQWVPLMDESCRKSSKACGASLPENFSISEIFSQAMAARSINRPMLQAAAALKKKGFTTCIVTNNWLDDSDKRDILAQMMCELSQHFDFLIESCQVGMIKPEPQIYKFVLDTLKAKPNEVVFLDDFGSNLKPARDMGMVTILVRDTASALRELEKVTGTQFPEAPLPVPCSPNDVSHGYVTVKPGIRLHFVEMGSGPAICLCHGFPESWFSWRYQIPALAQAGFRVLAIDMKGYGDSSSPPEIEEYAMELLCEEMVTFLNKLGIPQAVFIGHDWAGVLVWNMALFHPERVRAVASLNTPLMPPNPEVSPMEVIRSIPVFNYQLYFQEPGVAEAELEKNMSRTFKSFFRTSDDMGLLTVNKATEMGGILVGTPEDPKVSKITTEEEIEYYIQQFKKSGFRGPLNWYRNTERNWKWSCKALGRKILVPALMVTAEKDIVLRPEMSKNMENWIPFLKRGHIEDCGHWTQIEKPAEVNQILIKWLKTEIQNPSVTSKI
Procedure: as §1
(§2) IC50 values were determined as described previously using cyano (2-methoxynaphthalen-6-yl) methyl trans-(3-phenyl-oxyran-2-yl) methyl carbonate (CMNPC) as a fluorescent substrate. Recombinant human or recombinant rat sEH (0.96 nM) was incubated with crude root extract or inhibitors for 5 min in 25 mM bis-Tris/HCl buffer (pH 7.0) containing 0.1 mg/mL of BSA at 30°C prior to substrate introduction ([S] = 5 μM). Activity was measured by determining the appearance of the 6-methoxy-2-naphthaldehyde with an excitation wavelength of 330 nm and an emission wavelength of 465 nm for 10 min.

recombinant human sEH [2] = molecular target: T1, recombinant human sEH; assay: sEH inhibition by fluorescent assay (CMNPC assay), human; type: biochemical; settings: for IC50: recombinant human sEH 0.96 nM, [S] = 5 μM, mean ± SD of three measurements
Procedure: as §1, §2
The inhibitory potency on human sEH was measured using the CMNPC assay as described in the Materials and Methods. Firstly, the inhibition percentage by each fraction (100 times dilution) was measured (Figure S5&S7). Then the inhibitory potency was measured for the fractions showing higher than 50% inhibition and the IC50 was determined. The potency of each of the fractions is presented as a relative potency to the calculated IC50 of the extract based on the concentration of MMU (Relative potency unit=dilution factor at IC50 of each of fraction/dilution factor at calculated IC50 of the extract based on MMU). […] Data in Table S1&S2 show the relative potency of each fraction and the percentage of recovered potency.

sEH = settings: cited from earlier work
[3] = test system: carrageenan induced inflammatory pain; assay: Nociceptive assay, carrageenan-induced inflammatory pain model (von Frey mechanical withdrawal threshold); type: in vivo; settings: rat
Procedure: Male Sprague-Dawley rats weighing 235–280 g were obtained from Charles River Laboratories and maintained in the UC Davis animal housing facility with ad libitum water and food on a 12 h/12 h light-dark cycle. Behavioral nociceptive testing was conducted by assessing mechanical withdrawal threshold using an electronic von Frey anesthesiometer apparatus (IITC, Woodland Hills, CA). […] At least three measurements were taken at 1–2 min inter-stimulus intervals. Data were normalized to percentage values using the formula (mechanical withdrawal threshold (g)) ×100/ (mechanical withdrawal threshold (g) of naïve animals). The analgesic effect of MMU was tested using the intraplantar carrageenan elicited local inflammatory pain model. […] Subsequently, the ability of these treatments to reduce the carrageenan-induced inflammatory pain was monitored over the course of 2.5 h.

[4] = Solubility in sodium phosphate buffer; type: physicochemical; settings: sodium phosphate buffer 0.1 M pH 7.4, 25°C, mean±SD
Procedure: An excess amount of MMU was added to a vial containing sodium phosphate buffer, 0.1 M pH 7.4 (0.25 mL), and the MMU suspension was equilibrated during 1 h of sonication and 48 h of shaking at 25°C, followed by centrifugation. The amount of MMU in the supernatant was analyzed by LC—MS/MS. The result is presented as mean ± SD of triplicate measurement.

recombinant human sEH [5] = molecular target: T1, recombinant human sEH; assay: Enzyme kinetics (Dixon method, t-DPPO substrate), dissociation constant; type: biochemical
Procedure: Dissociation constants were determined following the method described by Dixon for competitive tight binding inhibitors, using t-DPPO as a substrate. Inhibitor MMU at concentrations between 0 and 1000 nM was incubated in triplicate for 5 min in 100 mM sodium phosphate buffer (pH 7.4) at 30°C with 100 μl of the enzyme (2 nM of recombinant human sEH). Substrate (4.0 ≤ [S] final ≤ 30 μM) was then added. Velocity was measured as described previously. For each substrate concentration, the plots of the velocity as a function of the inhibitor concentration allow the determination of an apparent inhibition constant (Kiapp). The plot of the Kiapp values as a function of the substrate concentration allows the determination of Ki when [S] = 0. Kiapp was measured in at least 3 separate assays. Results are presented as average ± SE.

human sEH = settings: cited from earlier work
[6] = test system: carrageenan induced inflammatory pain; parameters: method as in Rose et al., (2010); settings: rat, ref Rose et al., (2010), cited from earlier work

`COc1ccc(CNC(=O)NCc2ccccc2)cc1` [BMU, 1-Benzyl-3-(4-methoxybenzyl) urea] showed an IC50 (recombinant human sEH [1]) of 10200 ± 2600 nM, an IC50 (recombinant rat sEH) of 44 ± 4.2 nM and an IC50 (recombinant human sEH [2]) of 400 ± 50 nM. The “inhibitory activity lower than that of MMU” value (recombinant human sEH [2]; with both CMNPC and t-DPPO assays) was “about 4 fold”.

In the case of `CC(=O)O[C@H]1CC[C@]2(C)[C@H]3CC=C4[C@@H]5CC(C)(C)CC[C@]5(C)CC[C@@]4(C)[C@]3(C)CC[C@H]2C1(C)C` [β-amyrin acetate], the IC50 (sEH) is given as 570 nM.

With `COc1ccc(CNC(=O)NCc2ccc(OC)cc2)cc1` [MMU, 1,3-Bis (4-methoxybenzyl) urea] the “reduction of carrageenan-induced inflammatory pain” value (from here on “reduction”) ([3]; 10 μg/paw intraplantar, 4 h after carrageenan, monitored 2.5 h) was “effectively reduced inflammatory pain; also recorded: significantly reduced carrageenan induced inflammatory pain; also recorded: significantly reduced pain levels; also recorded: showed local analgesic effects”, the “duration of efficacy compared to morphine” value ([3]; MMU 10 μg/paw vs morphine 10 μg/paw, Tukey p<0.05) was “longer duration of efficacy compared to morphine” and the solubility at 48 h [4] was 10.6 ± 2.1 µM (≈ 3.18 µg/mL). The IC50 (recombinant human sEH [1]) was 2600 ± 400 nM, the “potency relative to honokiol (more potent)” value (recombinant human sEH [1]; t-DPPO assay) was “about 8 fold” and the Ki (recombinant human sEH [5]) was 54 nM. For the same compound, the “potency higher than APAU (Ki based)” value (recombinant human sEH [5]) was “approximately 2 fold”, the “potency lower than t-AUCB (Ki based)” value (recombinant human sEH [5]) was “approximately 40 fold” and the IC50 (recombinant rat sEH) was 35 ± 5 nM. For the same compound, the IC50 (recombinant human sEH [2]) was 92 ± 14 nM.

In the case of `O=C(Nc1ccc(OC(F)(F)F)cc1)NC1CCN(C(=O)C2CC2)CC1` [TPCU, 1-(1-(Cyclopropanecarbonyl)piperidin-4-yl)-3-(4-(trifluoromethoxy)phenyl) urea], the IC50 (human sEH) is given as […] and the “reduction” value ([6]; 10 ng/paw intraplantar) is given as “significantly reduced carrageenan induced inflammatory pain; also recorded: significantly reduced pain levels”.

In the case of `CN1CC[C@]23c4c5ccc(O)c4O[C@H]2[C@@H](O)C=C[C@H]3[C@H]1C5` [morphine], the “reduction” value ([6]; 10 μg/paw intraplantar) is given as “significantly reduced carrageenan induced inflammatory pain; also recorded: significantly reduced pain levels”.

In the case of `C=CCc1ccc(O)c(-c2ccc(O)c(CC=C)c2)c1` [honokiol, reference compound], the IC50 (sEH) is given as 3400 nM and the IC50 (recombinant human sEH [1]) is given as 20300 ± 1700 nM.

In the case of `O=C(NCc1ccccc1)NCc1ccccc1` [BBU, 1,3-Dibenzylurea], the IC50 (recombinant human sEH [1]) is reported as 48300 ± 7000 nM, the IC50 (recombinant rat sEH) is reported as 100 ± 6 nM and the IC50 (recombinant human sEH [2]) is reported as 1900 ± 300 nM.
